Here are results for 32 compounds from patent publication US20210078988A1, “MODULATORS OF INDOLEAMINE 2,3-DIOXYGENASE” (GLAXOSMITHKLINE INTELLECTUAL PROPERTY DEVELOPMENT LIMITED, priority 2017, published 2021).

Each structure is given as a SMILES string.

The experiment concerns the target T1, indoleamine 2, 3-dioxygenase (IDO1) (Homo sapiens, UniProt P14902).
T1 construct: human peripheral blood mononuclear cells (PBMC) (PB003F; host or cells: human PBMC stimulated with IFN-gamma and LPS
The experiment is described as follows: PBMC IDO1 assay (kynurenine detection via mass spectrometry). In kind it is cell-based. As to conditions: human PBMC stimulated with IFN-γ and LPS, 2 days, kynurenine by mass spectrometry; read-out: IDO1 PBMC pIC50 (converted). In short, it runs like this: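 Human PBMCs (50,000/well) stimulated with IFN-γ 100 ng/ml and LPS 50 ng/ml were exposed to 11-point 3-fold compound dilutions for 2 days at 37 °C. Supernatant kynurenine was quantified by RapidFire MS relative to an internal standard; parallel CellTiter-Glo ATP luminescence measured cytotoxicity, with four-parameter curve fitting.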

T1 sequence (P14902 whole entry): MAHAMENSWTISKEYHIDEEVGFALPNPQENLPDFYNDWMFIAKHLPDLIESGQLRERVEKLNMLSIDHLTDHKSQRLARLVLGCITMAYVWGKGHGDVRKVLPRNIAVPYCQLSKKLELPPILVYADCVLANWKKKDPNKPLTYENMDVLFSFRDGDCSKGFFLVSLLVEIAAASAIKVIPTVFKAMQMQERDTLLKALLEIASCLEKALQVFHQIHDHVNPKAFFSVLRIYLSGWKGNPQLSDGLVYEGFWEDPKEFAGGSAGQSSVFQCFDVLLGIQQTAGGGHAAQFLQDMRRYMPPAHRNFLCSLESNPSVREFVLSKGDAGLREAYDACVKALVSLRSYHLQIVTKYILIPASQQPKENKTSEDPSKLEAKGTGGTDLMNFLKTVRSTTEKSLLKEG

Regarding `CC(C)OC(=O)N1CCC(C[C@H](NC(=O)c2ccc(Cl)s2)C2CC2)CC1` [Example 14, isopropyl (S)-4-(2-(5-chlorothiophene-2-carboxamido)-2-cyclopropylethyl)piperidine-1-carboxylate], the IC50 was 3.98 nM.
Consider `CCc1ccc(C(=O)N[C@@H](CC2CCN(C(=O)OC(C)(C)C)CC2)c2ccc(OC)nc2)s1` [Example 24, tert-butyl (S)-4-(2-(5-ethylthiophene-2-carboxamido)-2-(6-methoxypyridin-3-yl)ethyl)piperidine-1-carboxylate], for which the IC50 is 3.16 nM.
Under `CC(C)(C)OC(=O)N1CCC(CC(NC(=O)c2ccc(O)c(F)c2)c2ccccc2)CC1` (centres unmarked) [Example 196, tert-butyl 4-(2-(3-fluoro-4-hydroxybenzamido)-2-phenylethyl)piperidine-1-carboxylate] stands 251 nM; under `Cc1ccc(C(=O)N[C@@H](CC2CCN(C(=O)OC(C)(C)C)CC2)C2CC2)s1` [Example 9, (S)-tert-butyl 4-(2-cyclopropyl-2-(5-methylthiophene-2-carboxamido)ethyl)piperidine-1-carboxylate], 5.01 nM; under `CC(C)(C)OC(=O)N1CCC(CC(NC(=O)c2ccc(O)cc2)c2ccccc2)CC1` (centres unmarked) [Example 195, tert-butyl 4-(2-(4-hydroxybenzamido)-2-phenylethyl)piperidine-1-carboxylate], 251 nM.
As for `CC(C)CS(=O)(=O)N1CCC(CC(NC(=O)c2ccc(Cl)cc2)c2ccccc2)CC1` (centres unmarked) [Example 166, 4-chloro-N-(2-(1-(isobutylsulfonyl)piperidin-4-yl)-1-phenylethyl)benzamide], the IC50 was 100 nM.
Under `CC(C)(C)OC(=O)N1CCC(CC(NC(=O)c2ccc(F)cc2)C2CCCCC2)CC1` (centres unmarked) [Example 152, tert-butyl 4-(2-cyclohexyl-2-(4-fluorobenzamido)ethyl)piperidine-1-carboxylate] stands 79.4 nM; under `CC(C)CC(CC1CCN(C(=O)OC(C)(C)C)CC1)NC(=O)c1ccc(F)cc1` (centres unmarked) [Example 76, tert-butyl 4-(2-(4-fluorobenzamido)-4-methylpentyl)piperidine-1-carboxylate], 15.8 nM; under `CCc1ccc(C(=O)NC(CC2CCN(C(=O)OC(C)(C)C)CC2)C(C)C)s1` (centres unmarked) [Example 49, tert-butyl 4-(2-(5-ethylthiophene-2-carboxamido)-3-methylbutyl)piperidine-1-carboxylate], 6.31 nM.
`CCN(CC)c1nnc(C(CC2CCN(C(=O)OC(C)(C)C)CC2)NC(=O)c2ccc(F)cc2)o1` (centres unmarked) [Example 112, tert-butyl 4-(2-(5-(diethylamino)-1,3,4-oxadiazol-2-yl)-2-(4-fluorobenzamido)ethyl)piperidine-1-carboxylate]: the IC50 was 31.6 nM.
`CCN(c1nnc(C(CC2CCN(C(=O)OC(C)(C)C)CC2)NC(=O)c2ccc(C)s2)o1)C1CC1` (centres unmarked) [Example 50, tert-butyl 4-(2-(5-(cyclopropyl(ethyl)amino)-1,3,4-oxadiazol-2-yl)-2-(5-methylthiophene-2-carboxamido)ethyl)piperidine-1-carboxylate]: the IC50 is 6.31 nM.
On to `CC(C)CNCC(CC1CCN(C(=O)OC(C)(C)C)CC1)NC(=O)c1ccc(F)cc1` (centres unmarked) [Example 225, tert-butyl 4-(2-(4-fluorobenzamido)-3-(isobutylamino)propyl)piperidine-1-carboxylate], for which the IC50 is 501 nM.
Regarding `C#CCOc1ccc(C(=O)NC(CC2CCN(C(=O)OC(C)(C)C)CC2)c2ccccc2)cc1F` (centres unmarked) [Example 114, tert-butyl 4-(2-(3-fluoro-4-(prop-2-yn-1-yloxy)benzamido)-2-phenylethyl)piperidine-1-carboxylate], the IC50 was 31.6 nM.
Turning to `COc1ccc(C(CC2CCN(C(=O)OC(C)C)CC2)NC(=O)c2ccc(F)cc2)cn1` (centres unmarked) [Example 55, isopropyl 4-(2-(4-fluorobenzamido)-2-(6-methoxypyridin-3-yl)ethyl)piperidine-1-carboxylate], the IC50 was 12.6 nM.
`CCN(CC)c1nnc(C(CC2CCN(C(=O)OC(C)(C)C)CC2)NC(=O)c2ccc(C)s2)o1` (centres unmarked) [Example 48, tert-butyl 4-(2-(5-(diethylamino)-1,3,4-oxadiazol-2-yl)-2-(5-methylthiophene-2-carboxamido)ethyl)piperidine-1-carboxylate]: the IC50 is 3.98 nM.
As to `CC(C)(C)OC(=O)N1CCC(CC(NC(=O)c2ccc(Br)c(F)c2)c2ccccc2)CC1` (centres unmarked) [Example 71, tert-butyl 4-(2-(4-bromo-3-fluorobenzamido)-2-phenylethyl)piperidine-1-carboxylate], the IC50 is 15.8 nM.
Turning to `CC(C)(C)OC(=O)N1CCC(CC(CNCc2ccccc2)NC(=O)c2ccc(F)cc2)CC1` (centres unmarked) [Example 142, tert-butyl 4-(3-(benzylamino)-2-(4-fluorobenzamido)propyl)piperidine-1-carboxylate], the IC50 is 63.1 nM.
On to `COc1ccc([C@@H](CC2CCN(C(=O)OC(C)(C)C)CC2)NC(=O)c2ccc(F)cc2)cn1` [Example 183, (R)-tert-butyl 4-(2-(4-fluorobenzamido)-2-(6-methoxypyridin-3-yl)ethyl)piperidine-1-carboxylate], for which the IC50 was 158 nM.
In the case of `Cc1ccc(C(=O)NC(CC2CCN(C(=O)C(F)(F)c3ccccc3)CC2)c2ccccc2)s1` (centres unmarked) [Example 93, N-(2-(1-(2,2-difluoro-2-phenylacetyl)piperidin-4-yl)-1-phenylethyl)-5-methylthiophene-2-carboxamide], the IC50 is 20 nM.
With `CC(C)(C)NC(=O)N1CCC(CC(NC(=O)c2ccc(Cl)cc2)c2ccccc2)CC1` (centres unmarked) [Example 165, N-(tert-butyl)-4-(2-(4-chlorobenzamido)-2-phenylethyl)piperidine-1-carboxamide], the IC50 was 100 nM.
For the compound `COc1ccc([C@H](CC2CCN(C(=O)OC(C)(C)C)CC2)NC(=O)c2ccc(C)s2)cn1` [Example 20, tert-butyl(S)-4-(2-(6-methoxypyridin-3-yl)-2-(5-methylthiophene-2-carboxamido)ethyl)piperidine-1-carboxylate], the IC50 is 2 nM.
`CC(C)(C)OC(=O)N1CCC(CC(NC(=O)c2ccc(Br)cc2)C2CCCC2)CC1` (centres unmarked) [Example 126, tert-butyl 4-(2-(4-bromobenzamido)-2-cyclopentylethyl)piperidine-1-carboxylate]: the IC50 is 39.8 nM.
Turning to `CCNCC[C@H](CC1CCN(C(=O)OC(C)(C)C)CC1)NC(=O)c1ccc(Cl)s1` [Example 231, (S)-tert-butyl 4-(2-(5-chlorothiophene-2-carboxamido)-4-(ethylamino)butyl)piperidine-1-carboxylate], the IC50 is 631 nM.
As to `COc1ccc(C(CC2CCN(C(=O)OC(C)(C)C)CC2)NC(=O)c2ccc(SC)cc2)cn1` (centres unmarked) [Example 111, tert-butyl 4-(2-(6-methoxypyridin-3-yl)-2-(4-(methylthio)benzamido)ethyl)piperidine-1-carboxylate], the IC50 was 31.6 nM.
With `C#Cc1ccc(C(=O)NC(CC2CCN(C(=O)OC(C)(C)C)CC2)c2ccccc2)s1` (centres unmarked) [Example 4, tert-butyl 4-(2-(5-ethynylthiophene-2-carboxamido)-2-phenylethyl)piperidine-1-carboxylate], the IC50 was 3.98 nM.
Under `C#Cc1ccc(C(=O)NC(CC2CCN(C(=O)OC(C)(C)C)CC2)c2ccccc2)cc1F` (centres unmarked) [Example 6, tert-butyl 4-(2-(4-ethynyl-3-fluorobenzamido)-2-phenylethyl)piperidine-1-carboxylate] stands 10 nM.
With `Cc1ccc(C(=O)NC(CC(C)C)CC2CCN(C(=O)OC(C)(C)C)CC2)s1` (centres unmarked) [Example 26, tert-butyl 4-(4-methyl-2-(5-methylthiophene-2-carboxamido)pentyl)piperidine-1-carboxylate], the IC50 was 7.94 nM.
For the compound `CCCc1ccc(C(=O)NC(CC2CCN(C(=O)OC(C)(C)C)CC2)c2ccccc2)s1` (centres unmarked) [Example 87, tert-butyl 4-(2-phenyl-2-(5-propylthiophene-2-carboxamido)ethyl)piperidine-1-carboxylate], the IC50 was 20 nM.
Consider `O=C(NC(CC1CCN(C(=O)OC2CC2)CC1)c1ccccc1)c1ccc(Cl)cc1` (centres unmarked) [Example 77, cyclopropyl 4-(2-(4-chlorobenzamido)-2-phenylethyl)piperidine-1-carboxylate], for which the IC50 is 15.8 nM.
Next, `CC(C)(C)OC(=O)N1CCC(CC(NC(=O)c2ccc(F)cc2)c2ccccn2)CC1` (centres unmarked) [Example 226, tert-butyl 4-(2-(4-fluorobenzamido)-2-(pyridin-2-yl)ethyl)piperidine-1-carboxylate]: 631 nM; `CC(C)(C)OC(=O)N1CCC(CC(NC(=O)c2ccc(Cl)s2)C2CCCC2)CC1` (centres unmarked) [Example 115, tert-butyl 4-(2-(5-chlorothiophene-2-carboxamido)-2-cyclopentylethyl)piperidine-1-carboxylate]: 31.6 nM; `COc1ccc([C@H](CC2CCN(C(=O)OC(C)C)CC2)NC(=O)c2ccc(Cl)cc2)cn1` [Example 22, isopropyl (S)-4-(2-(4-chlorobenzamido)-2-(6-methoxypyridin-3-yl)ethyl)piperidine-1-carboxylate]: 2 nM.
